The test system of data set [1] is PHH spheroids. In words: Chronic toxicity assay in PHH spheroids, viability by cellular ATP content. In kind it is cell-based, human. The conditions noted are these: for Fold changes in EC50 vs. 48 h (8 d): 8 d vs 48 h exposure; for Fold changes in EC50 vs. 48 h (28 d): 28 d vs 48 h exposure; for EC50: Homo sapiens. The protocol: Cryopreserved PHH (obtained from […], France or Bioreclamation IVT, USA) or fresh hepatocytes (obtained from patients subject to liver resections at Huddinge University Hospital, Stockholm, Sweden) were used for formation of spheroid cultures. Hepatocytes obtained from patient livers were isolated as previously described. Use of the liver specimens for this purpose was approved by the Ethics Committee at Karolinska Institutet ([…] Stockholm) and studies were carried out in accordance with the approved guidelines. Written informed consent was obtained from all donors of liver material. Cells were seeded into ultra-low attachment 96-well plates (Corning) at 1,500 viable cells per well and subsequently centrifuged at 100 × g for 2 min. Cells were seeded in 100 μl Williams E medium supplemented with 2 mM L-glutamine, 100 units/ml penicillin, 100 μg/ml streptomycin, 10 μg/ml insulin, 5.5 μg/ml transferrin, 6.7 ng/ml sodium selenite, 100 nM dexamethasone, and 10% FBS. Spontaneous self-aggregation of the hepatocytes initiated spheroid formation. From day 4 or 5 after seeding, when the spheroids were sufficiently compact, 50% of the medium was exchanged daily for serum-free medium. Spheroids were maintained in serum-free medium until day 35, with a medium change every 48-72 h. Cell viability was assessed by determining the ATP content of single PHH spheroids with the CellTiter-Glo Luminescent Cell Viability Assay (Promega, Sweden). At the same time-points, cell culture medium was collected and albumin concentrations were determined by ELISA (Bethyl laboratories, USA). Absolute ATP and albumin values were normalized to spheroid volumes as determined from bright field imaging to compensate for compaction. […] Treatment was started on day 8 with repeated dosing of PHH spheroids every second day in serum-free medium as indicated. Cell viability was assessed by determining the ATP content as indicated above. EC50 values were determined using GraphPad Prism (GraphPad Software, USA).

For data set [2] the following is noted: human plasma Cmax; ref 21 (amiodarone), 22 (bosentan), 23 (diclofenac), 24 (fialuridine), 25 (tolcapone); read-out: In vivo Cmax; cited from earlier work.
The next data set concerns patients. The arrangement: method as in PMID 7565947. The conditions noted are these: clinical trials, cited from earlier work.
Another data set concerns chimeric TK-NOG mice. The arrangement: method as in PMID 24736310. The conditions noted are these: mice carrying human hepatocytes; cited from earlier work.
The test system of data set [3] is PHH spheroids. In words: Toxicity in non-infected and adenovirus (AdGL)-infected PHH spheroids. In kind it is cell-based, human. To be noted: for EC50: Homo sapiens. On the procedure: Cell viability was assessed by determining the ATP content of single PHH spheroids with the CellTiter-Glo Luminescent Cell Viability Assay (Promega, Sweden). At the same time-points, cell culture medium was collected and albumin concentrations were determined by ELISA (Bethyl laboratories, USA). Absolute ATP and albumin values were normalized to spheroid volumes as determined from bright field imaging to compensate for compaction.
A recombinant adenovirus (AdGL) expressing green fluorescent protein (GFP; described in ref. [44]) was added during PHH spheroid seeding at a multiplicity of infection (MOI) of 0.1. PHH were seeded into GravityPLUS hanging-drop 96-well plates (InSphero, Zurich, Switzerland) at 1,500 viable cells per well. Spheroids were transferred to Gravity TRAP 96-well plates (InSphero) on day 7. Culture conditions were identical to the conditions for spheroids formed in ultra-low attachment plates.

Data set [4] relates to PHH spheroids. In words: Bile acid accumulation (tauro-nor-THCA-25-DBD) in PHH spheroids. In kind it is cell-based, human. To be noted: 5 μM every second day for 1 week; n = 3, p = 0.03. On the procedure: (§1) PHH spheroids were dosed with 5 μM chlorpromazine every second day for 1 week. For the final exposure, 20 μM tauro-nor-THCA-25-DBD (Genomembrane Company Ltd., Yokohoma, Japan) was added. Bile acid accumulation was quantified and normalized to spheroid size using CellProfiler software.

Data set [5] deals with bile salt export pump (BSEP) mRNA. Put plainly: BSEP mRNA expression in PHH spheroids (RT-qPCR). In kind it is cell-based, human. To be noted: 5 μM. The protocol: as §1
Total RNA was isolated using Qiazol lysis reagent (Qiagen). RNA was reverse-transcribed into cDNA using SuperScript III reverse transcriptase and RT-qPCR analysis was performed using a TaqMan Universal mix on a 7500 Fast Real-Time PCR system.
A general note: Real-time PCR tracks product formation cycle by cycle.

The subject of data set [6] is PHH spheroids. In words: Neutral lipid staining (steatosis) in PHH spheroids. In kind it is cell-based, human. The conditions noted are these: 10 μM co-exposure with CsA 30 μM, 48 h; n = 3, p = 0.009. On the procedure:
PHH spheroids were treated with 30 μM cyclosporine A (CsA) and/or 10 μM α-tocopherol (α-TOH) as indicated. After 48 h, spheroids were fixed and incubated with HCS LipidTOX Green neutral lipid stain (1:500). CellProfiler software was used to quantify neutral lipid staining.

Data set [7] relates to Kupffer cells in co-culture spheroids. In words: LPS-induced IL-6 secretion in PHH/NPC co-culture spheroids (ELISA). In kind it is cell-based, human. To be noted: 10 μg/ml, 48 h; co-culture spheroids compared to PHH spheroids. The protocol:
When used, co-cultures of cryopreserved PHH and non-parenchymal cells (NPCs; Bioreclamation IVT) originating from different donors were thawed and seeded at a ratio of 2:1 (PHH:NPC) and 2,000 viable cells per well into ultra-low attachment plates. Functionality of Kupffer cells was assessed by measuring lipopolysaccharide (LPS)-induced interleukin 6 (IL-6) secretion. LPS was added at a concentration of 10 μg/ml and supernatants were collected after 48 h. IL-6 levels were determined via ELISA (Thermo Scientific).
On the technique in general: An ELISA detects its analyte on a solid surface through an enzyme-linked reagent.

The mark [8] stands for this setting: 672 h, PHH spheroids, viability by ATP content, dosing every second day, 28 days, read-out: EC50 (μM) 28d.
Where [9] appears, read: PHH spheroids, viability by ATP content, 48 h exposure, read-out: EC50 (μM) 48h.
The mark [10] stands for this setting: PHH spheroids, viability by ATP content, dosing every second day, 7d (legend: 8 days), read-out: EC50 (μM) 7d.

Some results are limits rather than exact numbers.

The EC50 is the concentration at which the effect is half-maximal. For orientation: Cmax means the maximum level reached in the sampled fluid or tissue.

For `COc1ccccc1Oc1c(NS(=O)(=O)c2ccc(C(C)(C)C)cc2)nc(-c2ncccn2)nc1OCCO` [Bosentan, bosentan], the “Fold changes in EC50 vs. 48 h (8 d)” value in the data set on PHH spheroids [1] is 3.6 fold. The “Fold changes in EC50 vs. 48 h (28 d)” value with PHH spheroids [1] is 6.0 fold. The EC50 in the data set on PHH spheroids [1] (setting [8]) was 41.8 µM; in the data set on PHH spheroids [1] (setting [9]) it was greater than 250 µM; in the data set on PHH spheroids [1] (setting [10]) it was 69.5 µM.
On to `O=C(O)Cc1ccccc1Nc1c(Cl)cccc1Cl` [Diclofenac, diclofenac], for which the values for the EC50 in the data set on PHH spheroids [1] (setting [8]), with PHH spheroids [1] (setting [9]) and in the data set on PHH spheroids [1] (setting [10]) were 45.9 µM, 191 µM and 56.8 µM, respectively.
For `O=c1[nH]c(=O)n([C@@H]2O[C@H](CO)[C@@H](O)[C@@H]2F)cc1I` [Fialuridine, fialuridine], the “Fold changes in EC50 vs. 48 h (8 d)” value in the data set with PHH spheroids [1] came to 142.9 fold. Moreover, the “Fold changes in EC50 vs. 48 h (28 d)” value in the data set on PHH spheroids [1] is listed as 1000 fold. Moreover, the EC50 is 0.1 µM in the data set on PHH spheroids [1] (672 h, PHH spheroids, repeated dosing, 4 weeks, read-out: EC50 after 4 weeks); greater than 100 µM in the data set on PHH spheroids [1] (setting [9]); 0.7 µM with PHH spheroids [1] (setting [10]). In addition, the “toxicity observed after 48 h” value in the data set with PHH spheroids [1] (PHH spheroids, 48 h exposure) was “no toxicity”. Also, the Cmax in data set [2] was 1000 nM. Also, the patients who died entry with patients (of those with severe hepatotoxicity) is “five”. Moreover, the “patients who developed severe hepatotoxicity” value with patients (several weeks after beginning treatment) is 7/15. Besides, the hepatotoxicity entry in the data set on chimeric TK-NOG mice is “induced hepatotoxicity”.
For the compound `Cc1ccc(C(=O)c2cc(O)c(O)c([N+](=O)[O-])c2)cc1` [Tolcapone, tolcapone], the “Fold changes in EC50 vs. 48 h (8 d)” value with PHH spheroids [1] is listed as 2 fold. The “Fold changes in EC50 vs. 48 h (28 d)” value in the data set on PHH spheroids [1] worked out at 3.4 fold. For the same compound, the EC50 with PHH spheroids [1] (setting [8]) is 5.6 µM; in the data set on PHH spheroids [1] (setting [9]), 18.8 µM; in the data set with PHH spheroids [1] (setting [10]), 9.4 µM. The “EC50 values related to reported in vivo Cmax” value with PHH spheroids [1] (already after acute dosing) was “lower than the reported in vivo Cmax values”.
On to `N[C@@H]1[C@H]2CN(c3nc4c(cc3F)c(=O)c(C(=O)O)cn4-c3ccc(F)cc3F)C[C@@H]12` [Trovafloxacin, trovafloxacin], for which the EC50 with PHH spheroids [3] (non-infected PHH spheroids) came out at 96.1 µM; in the data set with PHH spheroids [3] (virus-infected PHH spheroids (AdGL, MOI 0.1)), 32.9 µM. The “enhancement of toxicity by viral infection” value in the data set with PHH spheroids [3] (infected vs non-infected spheroids, p < 0.001) was found to be 2.9 fold.
For `CN(C)CCCN1c2ccccc2Sc2ccc(Cl)cc21` [chlorpromazine], the “accumulation of fluorescently-labelled bile acid derivative tauro-nor-THCA-25-DBD” value in the data set with PHH spheroids [4] was “significant accumulation”. The “BSEP mRNA expression” value in data set [5] is “down-regulation”.
Consider `C[C@H]1COc2c(N3CCN(C)CC3)c(F)cc3c(=O)c(C(=O)O)cn1c23` [levofloxacin], for which the toxicity observed entry with PHH spheroids [3] (infected spheroids) and in the data set on PHH spheroids [3] (non-infected spheroids) was “no toxicity” each time.
For `Cc1c(C)c2c(c(C)c1O)CC[C@@](C)(CCC[C@H](C)CCC[C@H](C)CCCC(C)C)O2` [α-tocopherol], the “protection against cyclosporine A-induced neutral lipid accumulation” value with PHH spheroids [6] is recorded as “fully protected”.
For the compound lipopolysaccharide [LPS], in [7], the IL-6 secretion result is listed as “substantial increase”.

Values taken from article PMC4855186, “Characterization of primary human hepatocyte spheroids as a model system for drug-induced liver injury, liver function and disease” (Scientific Reports, 2016).
